Measured values taken from the supplement of paper PMC10307832.

Key:
Assay in all cases: relative viability (nuclei count vs DMSO), 5 days (fraction); higher = more cells survive
Tosedostat + Alpelisib = compound: CC(C)C[C@@H](C(=O)N[C@H](C(=O)OC1CCCC1)c1ccccc1)[C@H](O)C(=O)NO [Tosedostat] + Cc1nc(NC(=O)N2CCC[C@H]2C(N)=O)sc1-c1ccnc(C(C)(C)C(F)(F)F)c1 [Alpelisib] (partner 2 µM)
Method in brief: (§1)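 Relative viability equals treated-well nuclei counts divided by vehicle-well nuclei counts. Counts came from 4× images of lung cancer cell lines grown in 1536-well plates for 5 days after pin-tool dosing on the day after seeding. Dosing used one drug alone or a fixed anchor-drug dose plus five library-drug doses (not always all listed) in √10 steps, and values are medians of duplicate plates.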

[1] = compound: CC1=NN=C(O1)C2=NN=C(C=C2)N3CCC(CC3)OC4=C(C=CC(=C4)F)Cl + Nc1nc2[nH]cc(CCc3ccc(C(=O)N[C@@H](CCC(=O)O)C(=O)O)cc3)c2c(=O)[nH]1 [Pemetrexed] (partner 0.2 µM)
Method in brief: as §1

[2] = compound: CC1=NN=C(O1)C2=NN=C(C=C2)N3CCC(CC3)OC4=C(C=CC(=C4)F)Cl
Method in brief: (§2)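 Following overnight incubation at 37 °C, lung cancer cell lines in 1536-well plates were pinned with five library-drug doses (not always all listed) in √10 steps on vehicle-anchored plates. The cells then spent 5 days without medium change before a combined fix, permeabilisation and Hoechst stain, 4× imaging and MetaXpress nuclear counts. Viability is the treated-to-vehicle ratio of nuclei, taken as the median across plates. Only plates with control CV below 25% and at least one doubling passed.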

Tosedostat = compound: CC(C)C[C@@H](C(=O)N[C@H](C(=O)OC1CCCC1)c1ccccc1)[C@H](O)C(=O)NO [Tosedostat]
Method in brief: as §2

| Cell Line | relative viability (Tosedostat + Alpelisib; first compound 0.02 µM) | relative viability (Tosedostat + Alpelisib; first compound 0.06325 µM) | relative viability (Tosedostat + Alpelisib; first compound 0.2 µM) | relative viability (Tosedostat + Alpelisib; first compound 0.6325 µM) | relative viability (Tosedostat + Alpelisib; first compound 2 µM) | relative viability ([1]; first compound 0.253 µM) | relative viability ([1]; first compound 0.8 µM) | relative viability ([1]; first compound 2.53 µM) | relative viability ([1]; first compound 8 µM) | relative viability ([2]; 0.253 µM) | relative viability ([2]; 0.8 µM) | relative viability ([2]; 2.53 µM) | relative viability ([2]; 8 µM) | relative viability (Tosedostat; 0.02 µM) | relative viability (Tosedostat; 0.06325 µM) | relative viability (Tosedostat; 0.2 µM) | relative viability (Tosedostat; 0.6325 µM) | relative viability (Tosedostat; 2 µM) |
| --- | --- | --- | --- | --- | --- | --- | --- | --- | --- | --- | --- | --- | --- | --- | --- | --- | --- | --- |
| NCI-H2405 | 0.78 | 0.804 | 0.829 | 0.787 | 0.76 | 0.595 | 0.562 | 0.563 | 0.594 | 0.577 | 0.495 | 0.553 | 0.525 | 1.16 | 1 | 0.991 | 0.95 | 0.92 |
| NCI-H3122 | 0.861 | 0.809 | 0.844 | 0.774 | 0.997 | 0.138 | 0.142 | 0.16 | 0.143 | 0.47 | 0.444 | 0.478 | 0.432 | 1.06 | 1.01 | 1.03 | 1.02 | 1.02 |
| PC-3 [JPC-3] | 1.03 | 1.03 | 1.06 | 0.924 | 0.727 | 1.05 | 0.816 | 1.06 | 0.791 | 0.85 | 0.805 | 0.896 | 0.926 | 1.08 | 1.13 | 1.04 | 0.933 | 0.641 |
| PC-14 | 0.806 | 0.903 | 0.956 | 0.899 | 0.786 | 0.139 | 0.117 | 0.153 | 0.121 | 0.896 | 0.778 | 0.817 | 0.846 | 1.14 | 0.951 | 0.962 | 0.928 | 0.806 |
| RERF-LC-KJ | 0.677 | 0.955 | 0.777 | 0.742 | 0.57 | 0.446 | 0.43 | 0.438 | 0.455 | 0.653 | 0.628 | 0.652 | 0.647 | 0.953 | 1.03 | 0.944 | 0.888 | 0.876 |
| SK-LU-1 | 1.19 | 0.981 | 0.772 | 0.842 | 0.491 | 1.03 | 0.9 | 0.867 | 0.829 | 0.935 | 0.783 | 0.943 | 0.722 | 1.1 | 1.09 | 0.92 | 0.938 | 0.854 |
| SK-MES-1 | 0.814 | 1 | 0.832 | 0.802 | 0.689 | 0.681 | 0.853 | 0.828 | 0.628 | 0.859 | 0.79 | 0.912 | 0.783 | 1.03 | 1.02 | 1.01 | 0.965 | 0.953 |
| SW 1573 | 0.578 | 0.76 | 0.641 | 0.588 | 0.567 | 0.819 | 0.881 | 0.828 | 0.534 | 0.894 | 0.981 | 0.942 | 0.615 | 1.07 | 0.95 | 0.881 | 0.85 | 0.876 |
| UMC-11 | 0.962 | 0.87 | 0.957 | 0.942 | 1.03 | 0.504 | 0.535 | 0.518 | 0.37 | 0.634 | 0.641 | 0.76 | 0.594 | 1.1 | 0.994 | 1.03 | 1.04 | 1.05 |
